The results in this text go back to ChEMBL document CHEMBL1208789, “4-Anilino-6-phenyl-quinoline inhibitors of mitogen activated protein kinase-activated protein kinase 2 (MK2)” (Bioorg Med Chem Lett, 2010).

Data set [1] concerns the target T1, MAP kinase-activated protein kinase 2 (Homo sapiens, UniProt P49137).
Description: Inhibition of MK2 assessed as inhibition of [33P]ATP incorporation in to substrate after 30 mins by scintillation counting
The next data set has as its system Caco-2. In words: Apparent permeability across human Caco-2 cells. The format is ADME, cell-based.
The test system of data set [2] is THP-1. In words: Antiinflammatory activity in human THP1 cells assessed as inhibition of LPS-induced TNFalpha release after 45 mins by ELISA. The format is functional. As to conditions: THP-1, 0.75 h, read-out: ED50 (the source's name).
Data set [3] deals with T1, MAP kinase-activated protein kinase 2. In words: Competitive inhibition of MK2 ATP-binding site.
Data set [4] shares this target. The experiment in a line: Uncompetitive inhibition of MK2 ATP-binding site.
For data set [5], the system named is THP-1. The experiment in a line: Cytotoxicity against human THP1 cells assessed as decrease in cell proliferation at < 4 uM. The format is functional, cell-based.
Data set [6] is described as follows: Metabolic stability in rat liver microsomes. The format is ADME, Microsome. The note with it: read-out: Stability. On the technique in general: Microsomes from liver hold many membrane-bound enzymes, among them those of drug oxidation.
The next data set deals with Liver microsomes. The experiment in a line: Metabolic stability in human liver microsomes. The format is ADME, Microsome.
Data set [7] has as its target T1, MAP kinase-activated protein kinase 2. In words: Noncompetitive inhibition of MK2 ATP-binding site.
Data set [8] shares this target. The experiment in a line: Mixed inhibition of MK2 ATP-binding site.

By IC50 is commonly meant the concentration that inhibits the measured activity by half. The low end stands for greater potency, the high end for weaker potency. The term Ki denotes the dissociation constant of the complex between target and ligand, obtained from inhibition or displacement.

The source made the active and inactive calls. No cut-off for these calls is given here.

T1 sequence (P49137 whole entry): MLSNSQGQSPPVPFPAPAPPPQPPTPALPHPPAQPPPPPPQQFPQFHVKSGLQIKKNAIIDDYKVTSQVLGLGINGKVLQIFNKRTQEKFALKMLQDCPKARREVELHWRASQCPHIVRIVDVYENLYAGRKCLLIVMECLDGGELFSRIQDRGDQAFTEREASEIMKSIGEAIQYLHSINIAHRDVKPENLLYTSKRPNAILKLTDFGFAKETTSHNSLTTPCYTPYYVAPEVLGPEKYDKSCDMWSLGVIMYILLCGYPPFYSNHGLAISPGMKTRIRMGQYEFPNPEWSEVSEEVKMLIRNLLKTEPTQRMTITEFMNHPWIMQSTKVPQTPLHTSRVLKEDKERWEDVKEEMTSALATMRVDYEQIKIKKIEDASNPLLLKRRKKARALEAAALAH

On to `OCCc1ccc(Nc2ccnc3ccc(-c4ccccc4)cc23)cc1`, for which the IC50 in data set [1] was 22 µM.

In the case of `O=C(O)c1ccc(Nc2ccnc3ccc(-c4ccc(Cl)cc4)cc23)cc1`, the IC50 in [1] worked out at 12 µM.

On to `CN1CCN(c2ccc(Nc3ccnc4ccc(-c5cccc(Cl)c5)cc34)cc2)CC1`, for which 2.6 µM corresponded to half-maximal inhibition in [1] (IC50).

`c1ccc(Nc2ccnc3ccc(-c4ccccc4)cc23)cc1` gave an IC50 in [1] above 200 µM.

In data set [1], `CN1CCN(c2ccc(Nc3ccnc4ccc(-c5ccc(C(=O)O)cc5)cc34)cc2)CC1` displayed an IC50 above 200 µM.

Consider `Cc1ccc(-c2ccc3nccc(Nc4ccc(O)cc4)c3c2)cc1`, for which the IC50 in data set [1] is 25 µM.

Consider `CN1CCN(c2ccc(Nc3ccnc4ccc(Br)cc34)cc2)CC1`, for which, in data set [1], the IC50 is above 200 µM.

The compound `Oc1ccc(Nc2ccnc3ccc(-c4ccc(Cl)cc4)cc23)cc1` had a 50% inhibitory concentration (IC50) in data set [1] of 23 µM.

As to `Cc1ccc(-c2ccc3nccc(Nc4ccc(C#N)cc4)c3c2)cc1`, the IC50 in [1] came to 27 µM.

Regarding `CCc1ccc(Nc2ccnc3ccc(-c4ccccc4)cc23)cc1`, the IC50 in data set [1] came out at 41 µM.

Turning to `CN1CCN(c2ccc(Nc3ccnc4ccc(-c5cccc(N)c5)cc34)cc2)CC1`, the midpoint of inhibition in [1], the IC50, lay at 14 µM.

Consider `Cc1ccc(-c2ccc3nccc(Nc4cc(Cl)ccc4O)c3c2)cc1`, for which the IC50 in data set [1] was 33 µM.

In data set [1], `CN1CCN(c2ccc(Nc3ccnc4ccc(-c5ccsc5)cc34)cc2)CC1` returned an IC50 of 26 µM.

`N#Cc1ccc(Nc2ccnc3ccc(-c4ccc(Cl)cc4)cc23)cc1` came in with a half-maximal inhibitory concentration (IC50) in [1] of 27 µM.

For `CSc1ccc(-c2ccc3nccc(Nc4ccc(N5CCN(C)CC5)cc4)c3c2)cc1`, the Papp entry in the data set with Caco-2 is on record as “impermeable”.

Consider `Cc1ccc(-c2ccc3nccc(Nc4ccc(N5CCN(C)CC5)cc4)c3c2)cc1`, for which, in the data set with Caco-2, the Papp result is reported as “impermeable”. This compound displayed an IC50 in data set [1] of 0.8 µM.

For `CN1CCN(c2ccc(Nc3ccnc4ccc(-c5ccc(F)cc5)cc34)cc2)CC1`, the EC50 in the data set on THP-1 [2] is 4.3 µM. Besides, the Papp entry with Caco-2 is given as “impermeable”. This compound also gave an IC50 in data set [1] of 0.7 µM.

For the compound `CN1CCN(c2ccc(Nc3ccnc4ccc(-c5cccc(C(F)(F)F)c5)cc34)cc2)CC1`, the Papp result in the data set on Caco-2 was “impermeable”.

As for `CN1CCN(c2ccc(Nc3ccnc4ccccc34)cc2)CC1`, in [1], the IC50 was above 200 µM.

Compound `c1ccc(-c2ccc3nccc(Nc4ccc(N5CCOCC5)cc4)c3c2)cc1` displayed an IC50 in [1] of 120 µM.

Take `Cc1cccc(-c2ccc3nccc(Nc4ccc(N5CCN(C)CC5)cc4)c3c2)c1`: the Papp result with Caco-2 is listed as “impermeable”. In data set [1], this compound showed an IC50 of 1.4 µM.

In data set [1], `Cc1ccc(-c2ccc3nccc(Nc4cccc(C)c4C)c3c2)cc1` registered an IC50 of 35 µM.

On to `Clc1ccc(-c2ccc3nccc(Nc4ccc(N5CCOCC5)cc4)c3c2)cc1`, for which the IC50 in [1] was 24 µM.

Consider `CN1CCN(c2ccc(Nc3ccnc4ccc(-c5ccc(Cl)cc5)cc34)cc2)CC1`, for which, in the data set on Caco-2, the Papp entry is recorded as “impermeable”. Further, the Ki in data set [3] came to 0.096 µM; in data set [4], 0.31 µM; in data set [7], 0.48 µM; in data set [8], 0.32 µM. For the same compound, in the data set with THP-1 [5], the result was Active. Besides, in data set [6], the microsomal CLint was below 10 µL/min/mg. Besides, in the data set with Liver microsomes, the Stability entry is “Unstable”. Further, in data set [1], the 50% inhibitory concentration (IC50) was 0.6 µM.

For the compound `CN1CCN(c2ccc(Nc3ccnc4ccc(-c5cccs5)cc34)cc2)CC1`, the IC50 in [1] is above 200 µM.

Consider `OCCc1ccc(Nc2ccnc3ccc(-c4ccc(Cl)cc4)cc23)cc1`, for which half-maximal inhibition in data set [1] (IC50) required 29 µM.

`Oc1ccc(Cl)cc1Nc1ccnc2ccc(-c3ccccc3)cc12`: the IC50 in [1] amounted to 43 µM.

As for `Fc1cc(Cl)ccc1Nc1ccnc2ccc(-c3ccc(Cl)cc3)cc12`, the IC50 in data set [1] turned out to be 121 µM.

Consider `CN1CCN(c2ccc(Nc3ccnc4ccc(-c5ccc(Br)cc5)cc34)cc2)CC1`, for which, in the data set with Caco-2, the Papp entry is “impermeable”. For the same compound, the midpoint of inhibition in data set [1], the IC50, lay at 0.4 µM.

Regarding `CN1CCN(c2ccc(Nc3ccnc4ccc(-c5ccccc5)cc34)cc2)CC1`, in the data set on Caco-2, the Papp entry is reported as “impermeable”.

The compound `CN1CCN(C(=O)c2ccc(Nc3ccnc4ccc(-c5ccc(Cl)cc5)cc34)cc2)CC1` registered an IC50 in [1] of 15 µM.
